These results are taken from patent US9688662B2, “N-(2,3-dihydro-1H-pyrrolo[2,3-b]pyridin-5-yl)-4-quinazolinamine and N-(2,3-dihydro-1H-indol-5-yl)-4-quinazolinamine derivatives as perk inhibitors” (Janssen Pharmaceutica NV, priority 2013, dated 2017).

Series [1] addresses T1, PERK (Homo sapiens, UniProt Q9NZJ5).
T1 sequence (Q9NZJ5 30-1116): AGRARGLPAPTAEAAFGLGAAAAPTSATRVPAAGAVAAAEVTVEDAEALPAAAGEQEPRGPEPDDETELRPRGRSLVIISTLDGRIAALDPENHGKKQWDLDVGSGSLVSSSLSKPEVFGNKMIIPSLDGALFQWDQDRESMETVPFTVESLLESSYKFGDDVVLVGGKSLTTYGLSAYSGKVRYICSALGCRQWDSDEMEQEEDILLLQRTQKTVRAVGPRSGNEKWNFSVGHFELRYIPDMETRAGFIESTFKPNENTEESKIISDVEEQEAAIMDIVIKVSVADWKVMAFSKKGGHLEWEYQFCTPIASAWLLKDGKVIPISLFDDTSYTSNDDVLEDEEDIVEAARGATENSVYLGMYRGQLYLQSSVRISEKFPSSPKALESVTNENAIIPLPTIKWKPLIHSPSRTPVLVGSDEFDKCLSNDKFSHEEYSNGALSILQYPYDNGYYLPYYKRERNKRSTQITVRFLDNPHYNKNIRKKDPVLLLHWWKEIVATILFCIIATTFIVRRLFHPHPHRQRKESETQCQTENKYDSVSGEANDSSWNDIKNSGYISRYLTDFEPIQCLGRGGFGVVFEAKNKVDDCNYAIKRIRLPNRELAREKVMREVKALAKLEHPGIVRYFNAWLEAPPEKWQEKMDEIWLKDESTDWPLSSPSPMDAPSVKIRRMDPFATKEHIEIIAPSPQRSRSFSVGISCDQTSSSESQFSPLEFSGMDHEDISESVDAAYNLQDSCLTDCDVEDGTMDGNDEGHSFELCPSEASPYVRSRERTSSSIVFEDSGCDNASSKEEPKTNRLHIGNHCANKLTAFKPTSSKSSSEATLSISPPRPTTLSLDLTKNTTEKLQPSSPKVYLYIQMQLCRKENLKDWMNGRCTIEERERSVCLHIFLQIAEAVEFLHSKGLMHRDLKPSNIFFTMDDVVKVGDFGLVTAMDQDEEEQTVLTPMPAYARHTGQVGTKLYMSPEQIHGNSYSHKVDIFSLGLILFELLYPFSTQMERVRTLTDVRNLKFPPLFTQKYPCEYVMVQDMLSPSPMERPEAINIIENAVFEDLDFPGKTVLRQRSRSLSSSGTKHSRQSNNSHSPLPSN
In words: Cell-based PERK inhibition assay (TR-FRET, phosphorylation of GFP-eIF2 alpha in HEK293 cells, tunicamycin). As to conditions: HEK293 (LanthaScreen eIF2α GripTite) cells, compounds 60 min, tunicamycin 2 microg/ml 120 min; for IC50: read-out: P-eIF2alpha_Lantha_cell pIC50 (converted). The protocol: A cell-based TR-FRET assay to measure inhibition of phosphorylation of GFP-eIF2 alpha expressed in HEK293 cells by compounds was set up as follows:
LanthaScreen® eIF2α GripTite cells (Invitrogen M4387) were plated and incubated for 16-20 h at 37° C. and 5% CO2, incubated with test compounds for 60 min, and then stimulated with tunicamycin (2 microg/ml) for 120 min. Culture medium was aspirated from the wells and, the cells were lysed in LanthaScreen® Cellular Assay Lysis Buffer (Invitrogen; PV5598), supplemented with protease inhibitor cocktail (Sigma P8340, 1/1000 dilution) and phosphatase inhibitor cocktail (Sigma P0044, 1/1000 dilution), including 2 nM terbium-labeled eIF2a pSer52 antibody (Invitrogen; PV4816).
For orientation: In TR-FRET formats the signal depends on donor and acceptor labels being close together.

Series [2] has as its target T1, PERK. In words: In-vitro PERK enzyme inhibition assay (LanthaScreen, KIN_PERK). In kind it is biochemical. Particulars: recombinant GST-PERK, GFP-eIF2 alpha substrate, 5 μM ATP, 60 minutes; for IC50: read-out: KIN_PERK pIC50 (converted). Also noted: GST (N); purchased Invitrogen PV5106. On the procedure: Pharmacology i) In-Vitro PERK Enzyme Inhibition Assay (KIN_PERK pIC50)
The compounds of the invention were tested for inhibitory activity against PERK in an enzyme inhibition assay.
A biochemical PERK kinase assay using LanthaScreen® technology from Invitrogen using recombinant GST-PERK (Invitrogen PV5106), GFP-eIF2 alpha (full length) as substrate (Invitrogen PV4809) and the Terbium-labeled antibody (Tb-anti-peIF2alpha (pSer52); Invitrogen PV4816) as detection reagent, was performed essentially as described by the manufacturer, using following specific parameters: […]

For orientation: melting point means the temperature, or range, at which the solid turns liquid. `COc1cc2ncnc(Nc3ccc4c(c3F)CCN4C(=O)Cc3cc(F)ccc3F)c2cc1OC` [Compound 3] had a melting point of 210 °C. For the same compound, in series [1], the IC50 is 50.1 nM. For the same compound, in series [2], the IC50 was 0.398 nM.

Regarding `COc1cc2ncnc(Nc3ccc4c(c3)CCN4C(=O)Cc3c(C)n(C)c4ccccc34)c2cc1OC` [Compound 5], the melting point worked out at 168 °C. In series [1], the IC50 was 63.1 nM. Besides, the IC50 in series [2] is 1.26 nM.

As for `COc1cc2ncnc(Nc3ccc4c(c3)CCN4C(=O)Cc3c(Br)cnn3C)c2cc1OC` [Compound 11, 2-(4-bromo-2-methyl-pyrazol-3-yl)-1-[5-[(6,7-dimethoxyquinazolin-4-yl)amino]indolin-1-yl]ethanone], the melting point was 170 °C. For the same compound, the IC50 in series [1] is 251 nM. Moreover, the IC50 in series [2] was 7.94 nM.

Compound `COCCOc1cc2ncnc(Nc3ccc4c(c3)CCN4C(=O)Cc3c(C)[nH]c4ccccc34)c2cc1OCCOC` [Compound 14] returned a melting point of 186 °C. Further, in series [1], the IC50 is 398 nM.

In turn, `COc1cc2ncnc(Nc3ccc4c(c3)CCN4C(=O)Cn3ccc4ccccc43)c2cc1OC` [Compound 15] displayed a melting point of 176 °C. The IC50 in series [1] was roughly 302 nM. In series [2], the “KIN_PERK pIC50” value was found to be 8.2.

`COc1cc2ncnc(Nc3ccc4c(c3)CCN4C(=O)Cc3csc4ccccc34)c2cc1OC` [Compound 16] gave a melting point of 161 °C. For the same compound, the IC50 in series [1] is 501 nM. Besides, the IC50 in series [2] is 5.01 nM.

As for `COc1cc2ncnc(Nc3ccc4c(c3)CCN4C(=O)Cc3nn(C)c4ccccc34)c2cc1OC` [Compound 17], the melting point was determined as 158 °C. Besides, the IC50 in series [1] was 794 nM. Besides, the IC50 in series [2] is 20 nM.

As to `COc1cc2ncnc(Nc3ccc4c(c3)CCN4C(=O)Cc3cccs3)c2cc1OC` [Compound 20], the melting point worked out at 219 °C. Moreover, the IC50 in series [1] was 1260 nM. Also, the IC50 in series [2] was 31.6 nM.

`COc1cc2ncnc(Nc3ccc4c(c3)CCN4C(=O)Cc3ccn(C)n3)c2cc1OC` [Compound 28] had a melting point of 199 °C. Moreover, the “P-eIF2alpha_Lantha_cell pIC50” value in series [1] is listed as 5.1. In addition, the “KIN_PERK pIC50” value in series [2] was found to be 6.6.

As for `COc1cc2ncnc(Nc3ccc4c(c3)CCN4C(=O)Cc3coc4ccccc34)c2cc1OC` [Compound 30], the melting point was 165 °C. In addition, the IC50 in series [1] is greater than 30200 nM. For the same compound, in series [2], the “KIN_PERK pIC50” value was found to be 8.0.

As to `COc1cc2ncnc(Nc3ccc4c(c3F)CCN4C(=O)Cc3c(C)[nH]c4ccccc34)c2cc1OC` [Compound 39, 1-[5-[(6,7-dimethoxyquinazolin-4-yl)amino]-4-fluoro-indolin-1-yl]-2-(2-methyl-1H-indol-3-yl)ethanone], the melting point came out at 174 °C. The “P-eIF2alpha_Lantha_cell pIC50” value in series [1] stood at 7.9. Moreover, the “KIN_PERK pIC50” value in series [2] is 9.0.

In turn, `COc1cc2ncnc(Nc3ccc4c(c3)CCN4C(=O)Cc3c[nH]c4ccccc34)c2cc1OC` [Compound 40] had a melting point of 180 °C. The IC50 in series [1] was 631 nM. Moreover, the IC50 in series [2] was 12.6 nM.

Compound `COc1cc2ncnc(Nc3ccc4c(c3)CCN4C(=O)Cc3cccc(C)n3)c2cc1OC` [Compound 41] returned a melting point of 248 °C. In addition, in series [1], the IC50 was 794 nM.

As for `COc1cc2ncnc(Nc3ccc4c(c3)CCN4C(=O)Cc3cc(F)ccc3F)c2cc1OC` [Compound 42], the melting point is greater than 260 °C. For the same compound, the IC50 in series [1] is 631 nM. In addition, in series [2], the IC50 was 6.31 nM.

For `COc1cc2ncnc(Nc3ccc4c(c3)CCN4C(=O)Cn3ccnc3)c2cc1OC` [Compound 53], the melting point came out at 174 °C. In addition, the IC50 in series [1] is greater than 10000 nM. The IC50 in series [2] was greater than 10000 nM.
